Columns and labels:
[1] = administration of D-BHB, D-BHV and D-1,3BD in various ratios to human subjects at rest: circulating ketones and ketotic efficiency; type: in vivo; details: for Max change in mMol/L (increase in circulating ketone level): 10 g dose, three human subjects at rest; for 1 hour ketotic efficiency: 1 hour post-administration; for 1 hour ketotic efficiency / 2 hours ketotic efficiency: subject at rest; for 2 hours ketotic efficiency: 2 hours post-administration; for prolonged rise of blood ketone levels / sustained ketonemia: based on measured plasma levels of FIG. 1, subject at rest; for ketotic efficiency, rank in words: both 1 and 2 hours post-administration
Protocol: The administration of examples presented herein result in an increase in the circulating level of ketones in a human subject at rest that is greater than would result from the administration of (D)-β-hydroxybutyrate or (D)-1,3 butanediol alone over a duration of, for example, 120 minutes. Preferred examples include administration of a combination of D-BHB, D-BHV, and D-1,3BD in a therapeutically effective amount such that the rate change of circulating ketones in the blood of a human subject at rest is faster than the administration of an equivalent amount of either D-BHB or D-1,3BD administered alone. In one example, this includes the administration of a composition including a mixture of 43.2%% D-BHB, 1.8% D-BHV and 55% D-1,3BD. In another example, this includes the administration of a composition including a mixture of 52.8% DBHB, 2.2% D-BHV, and 45% D-1,3BD. In another example, this includes the administration of at composition including a mixture of 62.4% D-BHB, 2.6% D-BHV, and 35% D-1,3BD.
Examples include using a composition including D-BHB, D-BHV, and D-1,3BD in a subject at rest. The ketotic efficiency represents the net elevation of circulating ketones a ketone supplement affects over time in an individual. Ketotic efficiency may be represented as:
[formula] where mMol/L is the concentration of circulating 3-hydroxybutyrate in the blood, g is the total dose of the combined D-BHB, D-BHV, and D-1,3,BD in grams, kg is the mass of the individual in kilograms, and t is an increment of time in minutes.
While this example pertains to a fasted subject at rest, the relative utility of blended vs pure constituents has also been observed in fed and active subjects.
As illustrated by the examples of FIG. 1, these exemplary compositions can advantageously elevate circulating ketones by approximately two times greater than other known compositions. Such a composition can sustain ketonemia for longer than either D-BHB or D-1,3BD can when ingested alone by a subject of a given weight as shown by the 100% line (i.e., contains D-BHB, but not D-1,3BD) and the 0% line (i.e., contains only D-1,3BD, but not D-BHB).
As shown in the following table, the increase in circulating ketone level with a 10 g dose in three human subjects at rest was maximal at between 45-55% D-BHB in the tested compositions. […]

[2] = similar to lemon juice; cited from earlier work

| SMILES | Max change in mMol/L (increase in circulating ketone level) [1] | 1 hour ketotic efficiency [1] | 2 hours ketotic efficiency [1] | prolonged rise of blood ketone levels / sustained ketonemia [1] | ketotic efficiency, rank in words [1] | pH [2] |
| --- | --- | --- | --- | --- | --- | --- |
| CC(O)CCO (centres unmarked) [0%, (D)-1,3 butanediol] | 0.8 mmol/L | 266 kg·mmol·min/g/L | 462 kg·mmol·min/g/L | does not cause a prolonged rise of blood ketone levels | lowest efficiency |  |
| CC(O)CC(=O)O (stereo not drawn) [100%, (D)-β-hydroxybutyric acid] | 0.9 mmol/L | 335 kg·mmol·min/g/L | 566 kg·mmol·min/g/L | A similar result | lowest efficiency | 2.5 |

Reference: patent publication US11044932B1, “Composition of (D)-beta-hydroxybutyric acid, (D)-beta-hydroxyvaleric acid, and (D)-1,3 butanediol” (priority 2020, dated 2021)
